The record followed here is patent US20260138961A1, “MODULATORS OF MITOCHONDRIAL DNA REPLICATION” (Pretzel Therapeutics, Inc., priority 2022, published 2026).

The target of this assay is T1, POLγA:G848S (Homo sapiens, UniProt P54098, G848S).
T1 sequence (P54098 1-1239 G848S): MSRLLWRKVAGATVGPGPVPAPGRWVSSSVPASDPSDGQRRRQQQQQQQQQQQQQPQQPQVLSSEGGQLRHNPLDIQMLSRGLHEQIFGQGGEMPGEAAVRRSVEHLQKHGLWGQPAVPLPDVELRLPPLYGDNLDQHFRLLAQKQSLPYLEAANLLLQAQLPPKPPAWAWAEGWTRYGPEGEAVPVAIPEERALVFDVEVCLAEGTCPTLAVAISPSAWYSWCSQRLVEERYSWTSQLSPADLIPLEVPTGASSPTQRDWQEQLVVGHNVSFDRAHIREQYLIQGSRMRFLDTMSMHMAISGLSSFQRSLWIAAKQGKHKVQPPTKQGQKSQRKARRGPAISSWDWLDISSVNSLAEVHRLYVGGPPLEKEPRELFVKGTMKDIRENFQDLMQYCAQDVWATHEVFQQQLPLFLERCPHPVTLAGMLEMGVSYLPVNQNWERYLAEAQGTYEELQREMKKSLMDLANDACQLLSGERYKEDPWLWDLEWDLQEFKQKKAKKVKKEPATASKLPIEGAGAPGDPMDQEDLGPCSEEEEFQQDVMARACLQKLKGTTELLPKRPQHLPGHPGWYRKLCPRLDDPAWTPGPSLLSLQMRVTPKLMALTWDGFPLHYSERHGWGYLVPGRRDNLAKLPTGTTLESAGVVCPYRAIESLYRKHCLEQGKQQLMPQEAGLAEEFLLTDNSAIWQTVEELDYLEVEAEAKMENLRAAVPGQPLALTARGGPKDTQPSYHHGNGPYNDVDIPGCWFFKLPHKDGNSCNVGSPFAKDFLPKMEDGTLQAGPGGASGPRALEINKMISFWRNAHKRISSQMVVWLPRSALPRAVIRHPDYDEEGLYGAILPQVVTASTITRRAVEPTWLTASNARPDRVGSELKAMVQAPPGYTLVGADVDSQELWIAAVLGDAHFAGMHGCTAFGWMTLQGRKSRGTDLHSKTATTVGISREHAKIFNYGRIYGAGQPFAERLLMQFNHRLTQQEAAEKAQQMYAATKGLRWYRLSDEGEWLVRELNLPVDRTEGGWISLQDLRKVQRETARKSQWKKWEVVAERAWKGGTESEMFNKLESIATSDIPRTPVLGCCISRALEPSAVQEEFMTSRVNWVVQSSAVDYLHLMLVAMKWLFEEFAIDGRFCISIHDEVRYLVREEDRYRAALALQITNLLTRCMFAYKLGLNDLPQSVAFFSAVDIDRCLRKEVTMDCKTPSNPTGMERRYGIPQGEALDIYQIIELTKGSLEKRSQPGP
T1 sequence (Q9UHN1 1-485 partner): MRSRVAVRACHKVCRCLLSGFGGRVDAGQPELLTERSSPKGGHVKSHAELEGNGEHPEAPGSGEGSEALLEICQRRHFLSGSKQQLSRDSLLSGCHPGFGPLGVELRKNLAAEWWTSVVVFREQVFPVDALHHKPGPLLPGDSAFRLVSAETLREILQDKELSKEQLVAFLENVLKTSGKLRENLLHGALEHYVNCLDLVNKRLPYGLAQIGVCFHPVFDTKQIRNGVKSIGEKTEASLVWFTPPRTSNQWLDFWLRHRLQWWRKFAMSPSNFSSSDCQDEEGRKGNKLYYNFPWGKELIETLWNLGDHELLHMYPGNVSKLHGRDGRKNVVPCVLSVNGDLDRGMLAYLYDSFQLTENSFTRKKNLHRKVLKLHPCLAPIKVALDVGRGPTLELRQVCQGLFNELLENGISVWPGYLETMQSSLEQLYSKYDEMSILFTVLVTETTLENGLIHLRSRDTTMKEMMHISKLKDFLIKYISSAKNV
As to the kind of experiment: DNA polymerization assay, POLγA:G848S mutant. To be noted: stimulation of polymerase activity, primed M13mp18 ssDNA, 37° C. 2 hours; read-out: G848S AC50. The class given is biochemical. On the procedure:
DNA Polymerization Assay to Monitor Effects on Human Wildtype POLγ and Four Disease-Causing Mutant Variants of Human POLγ.
The ability of small molecules to stimulate the polymerase activity of POLγ was analyzed in a quantitative fluorescence SYBR Green I assay with fluorescence intensity (FI) readout.
In the presence of dNTPs, wild type human POLγ and mutant derivatives thereof were incubated with single-stranded, circular M13mp18 ssDNA hybridized to a short DNA oligonucleotide that functions as a primer for initiation of DNA synthesis. POLγ and mutant derivatives thereof will extend the primer and use the M13mp18 molecule as a template to synthesize long stretches of double-stranded DNA. SYBR Green I, which is a double-stranded DNA-binding dye, was used to quantify formation of double-stranded DNA in the reaction. When bound to double-stranded DNA, SYBR Green I fluorescence increases by up to 100-fold.
The assay was performed in the 384-well plate format. Upon addition of compounds, changes in double-stranded DNA synthesis activity can be monitored by following effects on fluorescent intensity.
The reactions also contained the accessory POLγB subunit, and the human mitochondrial single-stranded DNA binding protein (mtSSB).
The DNA template mixture used in the assay contained 0.5 nM primed M13 mp18 ssDNA, 400 nM mtSSB, 0.1 mM Tris-HCl (pH 8.0), 0.1 mM dNTP, 10 mM MgCl2, 0.1 mg/mL BSA, 1 mM TCEP solution, and 0.02% Triton X-100. The DNA template mixture for the wild type protein contained either 100 μM dNTP, 1 μM dNTP, or 0.1 μM dNTP, designated in Table 2 as 100 μM, 1 μM, and 0.1 μM, respectfully.
Microplates with compounds (0.1 μL in each well) to be tested in the assay were prepared from 10 mM compound stocks in 100% DMSO, and equal amounts of DMSO without any compound were added to positive and negative control wells.
The protein mixture was dispensed (5 μL into each well) into compound plates and incubated at 37° C. for 15 minutes. After incubation, 5 μL of the DNA template mixture was dispensed into each well. The plates were then incubated at 37° C. for 2 hours.
During incubation, a combined stop buffer and detection reagent solution was prepared. The buffer contained 25 mM EDTA (pH 8.0), 0.02% Triton X-100, and SYBR Green I [Invitrogen] diluted 10,000× (for fluorescent readout). EDTA will stop the enzymatic reaction by chelating magnesium ions.
Broadly, the AC50 is the midpoint of the concentration-response curve, whichever way the signal moves. `Cc1cc(S(=O)(=O)Nc2nc(-c3ccccc3)ns2)c(C)cc1Cl` [Example 132, 4-chloro-2,5-dimethyl-N-(3-phenyl-1,2,4-thiadiazol-5-yl)benzenesulfonamide]: the AC50 is above 100 µM. `C[C@@H]1CCCN1C(=O)c1cccc(NS(=O)(=O)c2ccc(C(F)(F)F)cc2)c1` [Example 118, (R)-N-(3-(2-methylpyrrolidine-1-carbonyl)phenyl)-4-(trifluoromethyl)benzenesulfonamide]: the AC50 was above 100 µM. The figure for `Cc1cc(S(=O)(=O)Nc2cccc(C(=O)N3CCCC[C@H]3C)c2)c(C)cc1Cl` [Example 9, (R)-4-chloro-2,5-dimethyl-N-(3-(2-methylpiperidine-1-carbonyl)phenyl)benzenesulfonamide] is 6 µM; for `O=S(=O)(Nc1csc(-c2ccccc2)n1)c1ccc2c(c1)CCO2` [Example 152, N-(2-phenylthiazol-4-yl)-2,3-dihydrobenzofuran-5-sulfonamide] it is 6 µM. Next, `Cc1nc2c(NS(=O)(=O)c3cc(C)c(Cl)cc3C)cccc2s1` [Example 99, 4-chloro-2,5-dimethyl-N-(2-methylbenzo[d]thiazol-4-yl)benzenesulfonamide]: above 100 µM; `Cc1cc(S(=O)(=O)Nc2ccc3c(c2)CC(=O)N3)c(C)cc1Cl` [Example 185, 4-chloro-2,5-dimethyl-N-(2-oxoindolin-5-yl)benzenesulfonamide]: 15 µM. The figure for `O=S(=O)(Nc1csc(-c2ccccc2)n1)c1ccccc1Cl` [Example 125, 2-chloro-N-(2-phenylthiazol-4-yl)benzenesulfonamide] is 7 µM.

Turning to `O=S(=O)(Nc1csc(-c2ccccc2)n1)c1ccc(Cl)cc1` [Example 120, 4-chloro-N-(2-phenylthiazol-4-yl)benzenesulfonamide], the AC50 is above 100 µM. The figure for `Cc1cc(S(=O)(=O)N[C@@H]2CCCN(C(=O)[C@@H]3CCCN3C)C2)c(C)cc1Cl` [Example 104, 4-chloro-2,5-dimethyl-N-((R)-1-(methyl-L-prolyl)piperidin-3-yl)benzenesulfonamide] is 47 µM.

On to `Cc1cc(S(=O)(=O)N[C@H]2CCCN(C(=O)[C@@H]3CCCN3C)C2)c(C)cc1Cl` [Example 101, 4-chloro-2,5-dimethyl-N-((S)-1-(methyl-L-prolyl)piperidin-3-yl)benzenesulfonamide], for which the AC50 is above 100 µM. Take `Cc1ccc(C)c(S(=O)(=O)Nc2cccc(C(=O)N3CCOCC3C#N)c2)c1` (stereo not drawn) [Example 7, N-(3-(3-cyanomorpholine-4-carbonyl)phenyl)-2,5-dimethylbenzenesulfonamide]: the AC50 was found to be 13 µM.

For `Cc1cc(NS(=O)(=O)c2cc(C)c(Cl)cc2C)cc(-c2ncc(C)s2)c1` [Example 110, 4-chloro-2,5-dimethyl-N-(3-methyl-5-(5-methylthiazol-2-yl)phenyl)benzenesulfonamide], the AC50 was above 100 µM. The figure for `Cc1cc(Cl)ccc1S(=O)(=O)Nc1cccc(C(=O)N2CCC[C@H]2C)c1` [Example 116, (R)-4-chloro-2-methyl-N-(3-(2-methylpyrrolidine-1-carbonyl)phenyl)benzenesulfonamide] is 9 µM. Next, `Cc1cc(S(=O)(=O)N[C@@H]2CCCN(C(=O)c3ccccc3)C2)c(C)cc1Cl` [Example 150, (R)-N-(1-benzoylpiperidin-3-yl)-4-chloro-2,5-dimethylbenzenesulfonamide]: above 100 µM; `Cc1cc(S(=O)(=O)Nc2cccc(C(=O)N(C)c3ccccn3)c2)c(C)cc1Cl` [Example 109, 3-((4-chloro-2,5-dimethylphenyl)sulfonamido)-N-methyl-N-(pyridin-2-yl)benzamide]: above 100 µM. Next, `O=S(=O)(Nc1csc(-c2ccccc2)n1)c1cccc(C(F)(F)F)c1` [Example 151, N-(2-phenylthiazol-4-yl)-3-(trifluoromethyl)benzenesulfonamide]: 2 µM; `Cc1cc(S(=O)(=O)Nc2cccc(-c3nccs3)c2)c(C)cc1Cl` [Example 16, 4-chloro-2,5-dimethyl-N-(3-(thiazol-2-yl)phenyl)benzenesulfonamide]: 2 µM; `Cc1cc(S(=O)(=O)N[C@@H]2CCCN(c3ccccc3)C2)c(C)cc1Cl` [Example 149, (R)-4-chloro-2,5-dimethyl-N-(1-phenylpiperidin-3-yl)benzenesulfonamide]: above 100 µM. On to `Cc1cnc(-c2cc(NS(=O)(=O)c3cc(C)c(Cl)cc3C)ccc2Cl)s1` [Example 111, 4-chloro-N-(4-chloro-3-(5-methylthiazol-2-yl)phenyl)-2,5-dimethylbenzenesulfonamide], for which the AC50 is above 100 µM. Take `O=S(=O)(Nc1csc(-c2ccccc2)n1)c1ccccn1` [Example 139, N-(2-phenylthiazol-4-yl)pyridine-2-sulfonamide]: the AC50 was above 100 µM. Consider `Cc1cc(S(=O)(=O)Nc2cccc(-c3ncco3)c2)c(C)cc1Cl` [Example 17, 4-chloro-2,5-dimethyl-N-(3-(oxazol-2-yl)phenyl)benzenesulfonamide], for which the AC50 turned out to be 6 µM. `Cc1cc(S(=O)(=O)Nc2csc(-c3ccccc3)n2)c(Cl)cc1F` [Example 136, 2-chloro-4-fluoro-5-methyl-N-(2-phenylthiazol-4-yl)benzenesulfonamide]: the AC50 is 2 µM. The figure for `CNC(=O)c1cnc(-c2cccc(NS(=O)(=O)c3cc(C)c(Cl)cc3C)c2)s1` [Example 93, 2-(3-((4-chloro-2,5-dimethylphenyl)sulfonamido)phenyl)-N-methylthiazole-5-carboxamide] is 9 µM; for `Cc1cc(S(=O)(=O)Nc2cccc(C(=O)N3CCC[C@H]3C)c2)ccc1Cl` [Example 117, (R)-4-chloro-3-methyl-N-(3-(2-methylpyrrolidine-1-carbonyl)phenyl)benzenesulfonamide] it is above 100 µM.
